Measured values from publication PMC3379896 (ACS medicinal chemistry letters, 2012).

How the values were obtained:
MMP-1 = target: T1, MMP-1 (Homo sapiens, UniProt P03956); assay: Kinetic inhibition of MMP-1; assay type: biochemical; conditions: read-out: MMP-1 inhibition at fixed concentration
T1 sequence (P03956 100-469): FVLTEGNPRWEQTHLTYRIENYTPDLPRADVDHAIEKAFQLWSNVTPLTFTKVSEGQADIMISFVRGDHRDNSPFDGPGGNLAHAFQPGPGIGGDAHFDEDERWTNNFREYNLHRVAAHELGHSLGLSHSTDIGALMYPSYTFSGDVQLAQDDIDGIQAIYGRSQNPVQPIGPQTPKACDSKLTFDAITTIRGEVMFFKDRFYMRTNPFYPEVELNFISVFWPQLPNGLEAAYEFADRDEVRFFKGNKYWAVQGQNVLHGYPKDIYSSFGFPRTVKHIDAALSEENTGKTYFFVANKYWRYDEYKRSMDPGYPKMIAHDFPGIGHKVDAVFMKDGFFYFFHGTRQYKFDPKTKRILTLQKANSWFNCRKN

MMP-14 = MMP-14 (Homo sapiens, UniProt P50281); assay: Kinetic inhibition of MMP-14; conditions: slow-binding
MMP-7 = target: T2, MMP-7 (Homo sapiens, UniProt P09237); assay: Kinetic inhibition of MMP-7; assay type: biochemical; conditions: read-out: MMP-7 inhibition at fixed concentration
T2 sequence (P09237 95-267): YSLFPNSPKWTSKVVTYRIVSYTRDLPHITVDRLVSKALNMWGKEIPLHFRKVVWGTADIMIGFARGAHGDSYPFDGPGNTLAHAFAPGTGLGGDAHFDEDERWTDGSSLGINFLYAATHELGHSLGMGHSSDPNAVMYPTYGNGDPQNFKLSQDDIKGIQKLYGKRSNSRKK

Structure (SMILES) | MMP-14 inhibition, in words (MMP-14) | also measured
O=S(=O)(CC1CS1)c1ccc(Oc2ccc(F)cc2)cc1 (stereo not drawn) [Compound 19a] | include MMP-14 in their spectrum of inhibition | inhibition at 20 µM (MMP-1): 0 to 3%
O=S(=O)(CC1CS1)c1ccc(Oc2cccc(F)c2)cc1 (stereo not drawn) [Compound 19b] | include MMP-14 in their spectrum of inhibition | inhibition at 125 µM (MMP-7): 0 to 3%
O=S(=O)(CC1CS1)c1ccc(Oc2ccc(I)cc2)cc1 (stereo not drawn) [Compound 22a] | include MMP-14 in their spectrum of inhibition | inhibition at 60 µM (MMP-1): 0 to 3%; inhibition at 10 µM (MMP-7): 0 to 3%
O=S(=O)(CC1CS1)c1ccc(Oc2ccc(CO)cc2)cc1 (stereo not drawn) [Compound 26] | include MMP-14 in their spectrum of inhibition | –
CC(C)Oc1ccc(Oc2ccc(S(=O)(=O)CC3CS3)cc2)cc1 (stereo not drawn) [Compound 32] | include MMP-14 in their spectrum of inhibition | –
COCOc1ccc(Oc2ccc(S(=O)(=O)CC3CS3)cc2)cc1 (stereo not drawn) [Compound 33a] | include MMP-14 in their spectrum of inhibition | –
O=S(=O)(CC1CS1)c1ccc(Oc2ccc(OC(F)(F)F)cc2)cc1 (stereo not drawn) [Compound 38a] | include MMP-14 in their spectrum of inhibition | inhibition at 20 µM (MMP-7): 0 to 3%
